{
  "source": "patent US6489118B2",
  "about": "“Allergenic proteins and peptides from dog dander and uses therefor” (ImmuLogic Pharmaceutical Corporation, priority 1992, dated 2002)",
  "key": {"[1]": {"test_system": "human T cell lines primed with recombinant Can f I", "experiment": "Secondary human T cell proliferation assay (3H thymidine incorporation)", "assay_type": "cell-based", "settings": "for percentage of positive responders (T cell stimulation index of at least two): tested dog allergic individuals", "from_the_text": "In one embodiment, peptides which have Can f I or Can f II T cell stimulating activity (i.e., the peptide comprises at least one T cell epitope) can be identified using an algorithm which predicts the presence of T cell epitopes in a protein sequence, such as the algorithm described by Hill et al., Journal of Immunology, 147:189-197 (1991). The algorithm of Hill et al. predicts the location of T cell epitopes in a protein by the presence of certain patterns within the sequence which are likely to bind MHC and therefore may contain T cell epitopes. Based on the Hill et al. algorithm, two 13 amino acid peptides (discussed in Example 10) have been identified and produced synthetically. Such peptides were tested for T cell activity as described above (e.g., by measuring cellular uptake of tritiated thymidine). Specifically, in Example 10, human T cell stimulating activity was tested by culturing T cells obtained from an individual sensitive to Can f I (i.e., an individual who has an IgE mediated immune response to Can f I) with a peptide derived from Can f I and proliferation of T cells in response to the peptide was determined, e.g., by measuring cellular uptake of tritiated thymidine. Stimulation indices for responses by T cells to peptides were calculated as the maximum CPM in response to a peptide divided by the control CPM. A stimulation index (S.I.) equal to or greater than two times the background level was considered “positive”. Positive results were used to calculate the mean stimulation index for each peptide for the group of patients tested (See FIG. 25). Preferred peptides of this invention comprise at least one T cell epitope and have a mean T cell stimulation index of greater than or equal to 2.0. A peptide having a mean T cell stimulation index of greater than or equal to 2.0 in a significant number of dog dander allergen sensitive patients tested is considered useful as a therapeutic agent. Preferred peptides have a mean T cell stimulation index of at least 2.5, more preferably at least 3.0, more preferably at least 3.5, more preferably at least 4.0, more preferably at least 5.0 and most preferably at least about 6. For example, peptides having a Can f I activity and having a mean T cell stimulation index of at least 5, as indicated by data shown in FIG. 25, include Construct 1 (SEQ ID NO: 105), Construct 2 (SEQ ID NO: 106), and Construct 3 (SEQ ID NO:107). T cell epitopes can also be predicted and determined as described above for peptides derived from Can f II.\nIn addition, preferred peptides have a positivity index (P.I.) of at least about 60, more preferably about 100, more preferably at least about 200 and most preferably at least about 300. The positivity index for a peptide is determined by multiplying the mean T cell stimulation index by the percent of individuals, in a population of individuals sensitive to dog dander allergens (e.g., preferably a population of at least 12 individuals, more preferably a population of at least 30 individuals or more), who have a T cell stimulation index to such peptide of at least 2.0. Thus, the positivity index represents both the strength of a T cell response to a peptide (S.I.) and the frequency of a T cell response to a peptide in a population of individuals sensitive to dog dander allergens.\nIn order to perform in vitro assays of human T cell proliferative response to Can f I and the five Can f I peptides described above, whole blood obtained from subjects allergic to Can f I in a skin prick test was passed through a Lymphocyte Separation Media (LSM) to remove platelets, red blood cells and granulocytes. The resulting peripheral blood mononuclear cells (PBMC) were stimulated with 50 μg/ml of recombinant Can f I produced as described in Example 2 for 6 days in RPMI 1640 medium supplemented with 5% heat inactivated human AB serum, 2 mM L-glutamine,10 mM HEPES, 50 μM 2-mercapto-ethanol and 100 U/ml penicillin and streptomycin. […]"}, "human IgE [2]": {"test_system": "human IgE", "experiment": "Western blot of protein preparations probed with patient plasma IgE", "assay_type": "binding", "settings": "plasma of dog allergic patient #901, 1:20 dilution; 5 μg/lane", "protocol": "Western Blot analysis of four different protein preparations as potential sources Can f I was performed. The four different prepparations used for Western blotting were: dog hair extract, dog saliva, bacterially expressed rCan f I (used for the ELISA) and rCan f I as expressed in a mammalian cell culture system. These preparations were loaded on a 15% acrylamide SDS-PAGE (lanes 1-4, respectively) at 5 μg/lane. The protein concentrations were based on the Bicinchoninic acid (BCA) assay (Pierce, Rockford, Ill.). Following electrophoresis, the proteins were transferred to nitrocellulose and stained with India Ink. The nitrocellulose sections were blocked by incubation in Tween solution with 1% milk/1% BSA for 30 minutes room temperature, then probed with patient #901 plasma or negative control patient #250 at a 1:20 dilution in tween mild solution. This first antibody incubation was carried out overnight at room temperature. Biotinylated goat anti-human IgE (KPL) was used as the second antibody at a 1:5000 dilution for a two hour incubation. Streptavidin-HRPO (1:20,000 dilution) and the ECL Western Blot Detection system (Amersham, Arlington Heights, Ill.) were used for detection by chemiluminescence. A 20 second exposure was performed and the film developed. The results from this assay show no recognition of the protein preparations by patient #250 IgE. […]"}, "human IgE [3]": {"test_system": "human IgE", "experiment": "Direct binding of human IgE to recombinant Can f I by ELISA", "protocol": "An ELISA plate (IMMULON II Dynatech, Chantilly, Va.) was coated with bacterially expressed recombinant Can f I, (rCan f I) at 0.5 μg/well in PBS-Tween and incubated overnight at 4° C. The coating antigen was removed and the wells were blocked with 0.5% gelatin in PBS, 200 μl/well for two hours at room temperature. Plasma from a skin test positive dog allergic patient, #901, was serially diluted with PBS-Tween and 100 μl was added per well and incubated overnight at 4° C. (the plasma dilutions were tested in duplicate). The second antibody (biotinylated goat anti-human IgE 1:1000, Kirkegaard & Perry Laboratories) was added at 100 μl/well for one hour at room temperature. This solution was removed and streptavidin-HRPO at 1:10,000, (Southern Biotecnology Associates, Inc. Birmingham, Ala.) was added for one hour at room temperature. TMB Membrane Peroxidase Substrate system (Kirkegaard & Perry Laboratories) was freshly mixed and added at 100 μl. The color was allowed to develop for 2-5 minutes. The reaction was stopped by the addition of 100 μl/well of 1M phosphoric acid. The plate was read on a Mircoplate EL 310 Autoreader (Biotek Instruments, Winooski, Vt.) with a 450 nm filter. The absorbance levels of duplicate wells were averaged. […] A known negative patient (#250) was also tested and shown to be negative by this assay."}, "[4]": {"test_system": "IgE binding to dog dander extracts", "settings": "RAST analysis; cited from earlier work"}, "[5]": {"test_system": "IgE of dog allergic patients", "settings": "purified allergen; cited from earlier work"}, "human IgE [6]": {"test_system": "human IgE", "experiment": "Direct binding ELISA of human IgE to native and recombinant Can f II", "protocol": "Plasma samples from 14 dog-allergic patients (skin test 4+) were assayed for IgE binding to native Can f II and rCan f II. An ELISA plate (Immulon II Dynatech, Chantilly, Va.) was coated with native and bacterially expressed recombinant Can f II at 0.5 μg/well in PBS-Tween and incubated overnight at 4° C. The coating antigen was removed and the wells were blocked with 0.5% gelatin in PBS, 200 μl/well for two hours at room temperature. Binding of human IgE to the coating antigen was detected using biotinylated goat-anti-human IgE, streptavidin linked to peroxidase and TMB substrate. Reactions were read on a plate reader at 450 nm (A450). Of 14 plasma samples tested for IgE to native Can f II, 5 contained detectable antibody binding (FIG. 22A), with plasma from patients #901 and #227 containg the highest levels. Similarly, of 23 plasma samples tested for IgE to recombinant, bacterially expressed Can f II, several contained detectable antibody binding (FIGS. 22B and C)."}},
  "data": [
    {"molecule": "A0095: 13 amino acid synthetic peptide, Can f I amino acids 7 through 19 (SEQ ID NO:108) (GKWYLKAMTADQE) [Construct A0095]", "values": [
      {"measurement": "positivity index (mean S.I. x percent positive responders)", "setting": "[1]; FIG. 10", "value": 129},
      {"measurement": "mean T cell stimulation index (S.I.)", "setting": "[1]; mean of positive responses (S.I. >= 2), T cell lines from dog allergic patients primed with rCan f I, FIG. 25", "value": 3.0},
      {"measurement": "percentage of positive responders (T cell stimulation index of at least two)", "setting": "[1]", "value": 43, "unit": "%"}
    ]},
    {"molecule": "mammalian expressed rCan f I: recombinant Can f I expressed in a mammalian cell culture system (NIH 3T3), COOH-terminal His6", "values": [
      {"measurement": "IgE binding on Western blot", "setting": "human IgE [2]", "value": "extremely faint"}
    ]},
    {"molecule": "Construct 2: recombinant fragment of Can f I, amino acids 56 through 108 (SEQ ID NO: 106), expressed in E. coli (TVVLHKTSEPGKYTAYEGQRVVFIQPSPVRDHYILYCEGELHGRQIRMAKLLG)", "values": [
      {"measurement": "percentage of positive responders (T cell stimulation index of at least two)", "setting": "[1]", "value": 73, "unit": "%"}
    ]},
    {"molecule": "rCan f I: bacterially expressed recombinant Can f I dog allergen with His6 reporter group", "values": [
      {"measurement": "IgE binding level relative to background", "setting": "human IgE [3]; plasma of dog allergic patient #901 at 1/162 dilution, antigen 0.5 μg/well", "value": "two-fold above background"},
      {"measurement": "IgE binding, negative control patient", "setting": "human IgE [3]; plasma of known negative patient #250", "value": "negative"},
      {"measurement": "percentage of positive responders (T cell stimulation index of at least two)", "setting": "[1]", "value": 89, "unit": "%"},
      {"measurement": "IgE binding on Western blot", "setting": "human IgE [2]", "value": "distinct binding"}
    ]},
    {"molecule": "A0096: 13 amino acid synthetic peptide, Can f I amino acids 42 through 54 (SEQ ID NO:109) (AKITMLTNGQCQN) [Construct A0096]", "values": [
      {"measurement": "percentage of positive responders (T cell stimulation index of at least two)", "setting": "[1]", "value": 43, "unit": "%"}
    ]},
    {"molecule": "Construct 3: recombinant fragment of Can f I, amino acids 90 through 148 (SEQ ID NO: 107), expressed in E. coli", "values": [
      {"measurement": "percentage of positive responders (T cell stimulation index of at least two)", "setting": "[1]", "value": 82, "unit": "%"}
    ]},
    {"molecule": "Construct 1: recombinant fragment of Can f I, amino acids 1 through 65 (SEQ ID NO: 105), expressed in E. coli with His6", "values": [
      {"measurement": "percentage of positive responders (T cell stimulation index of at least two)", "setting": "[1]", "value": 64, "unit": "%"}
    ]},
    {"molecule": "Can f I: major dog allergen of Canis familiaris; mature protein of SEQ ID NO: 2; immunoaffinity purified in cited work (protein) MKTLLLTIGFSLIAILQAQDTPALGKDTVAVSGKWYLKAMTADQEVPEKPDSVTPMILKAQKGGNLEAKITMLTNGQCQNITVVLHKTSEPGKYTAYEGQRVVFIQPSPVRDHYILYCEGELHGRQIRMAKLLGRDPEQSQEALEDFREFSRAKGLNQEILELAQSETCSPGGQ", "values": [
      {"measurement": "depletion of IgE binding to dog dander extracts", "setting": "[4]", "value": "50-70%"}
    ]},
    {"molecule": "Can f II: minor dog dander allergen, affinity purified native protein (de Groot et al.) (protein) EGNHEEPQGGLEELSGRWHSVALASNKSDLIKPWGHFRVFIHSMSAKDGNLHGDILIPQDGQCEKVSLTAFKTATSNKFDLEYWGHNDLYLAEVDPKSYLILYMINQYNDDTSLVAHLMVRDLSRQQDFLPAFESVCEDIGLHKDQIVVLSDDDRCQGSRD", "values": [
      {"measurement": "dog allergic patients whose IgE reacts with the allergen", "setting": "[5]", "value": 66, "unit": "%"},
      {"measurement": "competition with the IgE directed against dog dander extract", "setting": "[4]", "value": 23, "unit": "%"},
      {"measurement": "number of plasma samples with detectable IgE antibody binding", "setting": "human IgE [6]; of 14 plasma samples from dog-allergic patients (skin test 4+), FIG. 22A", "value": 5}
    ]},
    {"molecule": "recombinant, bacterially expressed Can f II: bacterially expressed recombinant Can f II with His6 reporter group (protein, left off: small tags and cut ends, bacterially expressed recombinant Can f II with His6 reporter group) EGNHEEPQGGLEELSGRWHSVALASNKSDLIKPWGHFRVFIHSMSAKDGNLHGDILIPQDGQCEKVSLTAFKTATSNKFDLEYWGHNDLYLAEVDPKSYLILYMINQYNDDTSLVAHLMVRDLSRQQDFLPAFESVCEDIGLHKDQIVVLSDDDRCQGSRD", "values": [
      {"measurement": "number of plasma samples with detectable IgE antibody binding", "setting": "human IgE [6]; of 23 plasma samples, FIGS. 22B and C", "value": "several"}
    ]}
  ]
}
